ChEMBL document CHEMBL2424635, “Discovery of novel histidine-derived lipo-amino acids: applied in the synthesis of ultra-short antimicrobial peptidomimetics having potent antimicrobial activity, salt resistance and protease stability” (Eur J Med Chem, 2013)
≈ marks a conversion by molar mass, not a printed value. Calls of active or inactive are those of the source. No cut-off for these calls is given here.

How the values were obtained:
[1] = system: Staphylococcus epidermidis; assay: Antibacterial activity against Staphylococcus epidermidis KCTC 1917 assessed as growth inhibition after 18 to 20 hrs by broth microdilution method; assay type: functional
[2] = system: Staphylococcus aureus; assay: Antibacterial activity against methicillin-resistant Staphylococcus aureus CCARM 3095 assessed as growth inhibition after 18 to 20 hrs by broth microdilution method; assay type: functional
[3] = Hemolytic activity in human RBC assessed as hemoglobin release after 1 hr; assay type: ADME, cell-based, Erythrocyte; settings: red blood cells (RBC)
[4] = system: Escherichia coli; assay: Antibacterial activity against Escherichia coli KCTC 1682 assessed as growth inhibition after 18 to 20 hrs by broth microdilution method in presence of NaCl; assay type: functional
[5] = system: Staphylococcus aureus; assay: Antibacterial activity against Staphylococcus aureus KCTC 1621 assessed as growth inhibition after 18 to 20 hrs by broth microdilution method; assay type: functional
[6] = system: Staphylococcus aureus; assay: Antibacterial activity against Staphylococcus aureus KCTC 1621 assessed as growth inhibition at 50 ug/ml after 18 to 20 hrs by broth microdilution method in presence of trypsin; assay type: functional, organism-based
[7] = system: Escherichia coli; assay: Antibacterial activity against Escherichia coli KCTC 1682 assessed as growth inhibition after 18 to 20 hrs by broth microdilution method; assay type: functional
[8] = system: Staphylococcus aureus; assay: Antibacterial activity against Staphylococcus aureus KCTC 1621 assessed as growth inhibition after 18 to 20 hrs by broth microdilution method in presence of NaCl; assay type: functional
[9] = system: Bacillus subtilis; assay: Antibacterial activity against Bacillus subtilis KCTC 3068 assessed as growth inhibition after 18 to 20 hrs by broth microdilution method in presence of NaCl; assay type: functional
[10] = system: Salmonella typhimurium; assay: Antibacterial activity against Salmonella typhimurium KCTC 1926 assessed as growth inhibition after 18 to 20 hrs by broth microdilution method; assay type: functional, Salmonella enterica subsp. enterica serovar Typhimurium; settings: Salmonella enterica
[11] = system: Pseudomonas aeruginosa; assay: Antibacterial activity against Pseudomonas aeruginosa KCTC 1637 assessed as growth inhibition after 18 to 20 hrs by broth microdilution method; assay type: functional
[12] = system: Staphylococcus aureus; assay: Antibacterial activity against methicillin-resistant Staphylococcus aureus CCARM 3089 assessed as growth inhibition after 18 to 20 hrs by broth microdilution method; assay type: functional
[13] = system: Salmonella typhimurium; assay: Antibacterial activity against Salmonella typhimurium KCTC 1926 assessed as growth inhibition after 18 to 20 hrs by broth microdilution method in presence of NaCl; assay type: functional, Salmonella enterica subsp. enterica serovar Typhimurium; settings: Salmonella enterica
[14] = system: Bacillus subtilis; assay: Antibacterial activity against Bacillus subtilis KCTC 3068 assessed as growth inhibition after 18 to 20 hrs by broth microdilution method; assay type: functional
[15] = system: Pseudomonas aeruginosa; assay: Antibacterial activity against Pseudomonas aeruginosa KCTC 1637 assessed as growth inhibition after 18 to 20 hrs by broth microdilution method in presence of NaCl; assay type: functional
[16] = system: Escherichia coli; assay: Antibacterial activity against Escherichia coli KCTC 1682 assessed as growth inhibition at 50 ug/ml after 18 to 20 hrs by broth microdilution method in presence of trypsin; assay type: functional, organism-based
[17] = system: Staphylococcus epidermidis; assay: Antibacterial activity against Staphylococcus epidermidis KCTC 1917 assessed as growth inhibition after 18 to 20 hrs by broth microdilution method in presence of NaCl; assay type: functional
[18] = system: Staphylococcus aureus; assay: Antibacterial activity against methicillin-resistant Staphylococcus aureus CCARM 3090 assessed as growth inhibition after 18 to 20 hrs by broth microdilution method; assay type: functional
[19] = system: Staphylococcus aureus; assay: Antibacterial activity against Staphylococcus aureus KCTC 1621 assessed as disruption of cellular structure at 3 x MIC after 1 hr by transmission electron microscopic analysis; assay type: functional, organism-based
[20] = system: Escherichia coli; assay: Antibacterial activity against Escherichia coli KCTC 1682 assessed as disruption of cellular structure at 3 x MIC after 1 hr by transmission electron microscopic analysis; assay type: functional, organism-based

SMILES	MIC [1] [µg/mL]	MIC [2] [µg/mL]	HC50 at 1 h [3] [µg/mL]	MIC [4] [µg/mL]	MIC [5] [µg/mL]	growth inhibition (GI) [6]	MIC [7] [µg/mL]	MIC [8] [µg/mL]	MIC [9] [µg/mL]	MIC [10] [µg/mL]	MIC [11] [µg/mL]	MIC [12] [µg/mL]	MIC [13] [µg/mL]	MIC [14] [µg/mL]	MIC [15] [µg/mL]	growth inhibition (GI) [16]	MIC [17] [µg/mL]	MIC [18] [µg/mL]	Activity [19]	Activity [20]
CCCCCCCCCCn1c[n+](CCCCCCCCCC)cc1C[C@H](N)C(=O)N[C@@H](CCCNC(=N)N)C(N)=O	2	2	49	8	2	Active	4	2	2	4	8	2	8	2	8	Active	2	4	–	–
CCCCCCCCCCCCCCn1c[n+](CCCCCCCCCCCCCC)cc1C[C@H](NC(=O)[C@@H](N)CCCNC(=N)N)C(=O)N[C@@H](CCCNC(=N)N)C(N)=O	> 64	> 64	> 256	> 64	> 64	–	> 64	> 64	> 64	> 64	> 64	> 64	> 64	> 64	> 64	–	> 64	> 64	–	–
CCCCCCCCCCn1c[n+](CCCCCCCCCC)cc1C[C@H](N)C(=O)N[C@@H](CCCNC(=N)N)C(=O)N[C@@H](CCCNC(=N)N)C(N)=O	4	4	110	16	4	Active	8	8	4	8	8	4	16	4	8	Active	4	4	Active	Active
CCCCCCCCCCn1c[n+](CCCCCCCCCC)cc1C[C@H](NC(=O)[C@@H](N)CCCNC(=N)N)C(=O)N[C@@H](CCCNC(=N)N)C(N)=O	4	4	121	16	4	Active	8	4	4	8	8	8	16	4	8	Active	4	4	Active	Active
CCCCCCC/C=C/Cn1cncc1C[C@H](NC(=O)[C@@H](N)CCCNC(=N)N)C(=O)N[C@@H](CCCNC(=N)N)C(N)=O	4 (≈ 6.61 µM)	16 (≈ 26.5 µM)	> 256	> 64	8 (≈ 13.2 µM)	–	32 (≈ 52.9 µM)	32	16	64 (≈ 106 µM)	32 (≈ 52.9 µM)	16 (≈ 26.5 µM)	64	4 (≈ 6.61 µM)	64	–	64	16 (≈ 26.5 µM)	–	–
